{
  "source": "patent US8652467B2",
  "about": "“Dek protein compositions and methods of using the same” (The Regents of the University of Michigan, priority 2005, dated 2014)",
  "key": {"[1]": {"system": "monocyte-derived macrophages (MDM)", "test": "DEK secretion by serum-differentiated MDM, Western blot of supernatants", "format": "cell-based, human", "settings": "for amount of DEK found in culture supernatants: treatment of MDM with Golgi inhibitors", "protocol": "MDM were prepared as described (See, e.g., Lane et al., J Immunol 163, 3653-61. (1999)). Briefly, heparinized venous blood was collected from healthy volunteers, and peripheral blood mononuclear cells (PBMC) were separated by Ficoll-Hypaque (Amersham Pharmacia Biotech AB, Uppsala, Sweden) density gradient centrifugation. MDM were purified by adherence to plastic for 2 h at 37° C. at a concentration of 5×10^5/ml. Adherent cells were consistently >90% monocytes (See, e.g., Lane et al., J Immunol 163, 3653-61. (1999)). […]\nMDMs were maintained for 12 h in serum-free conditioned media with added dexamethasone, (0.5 μM or 1 μM) (Sigma St. Louis, Mo.), cyclosporin A (CsA, 1 μg/ml) (Sigma St. Louis, Mo.), carbonyl cyanide chlorophenyl hydrazone (CCCP) (10 μM) (Sigma St. Louis, Mo.), IL-8 (10 ng/ml) (R&D Systems, Minneapolis, Minn.) or TBB (See, e.g., Sarno et al., Pharmacol Ther 93, 159-68 (2002)) for 3 hours. Following 3 washes with PBS, serum-free media was added for 3 to 12 h before harvest. The viability of the cells incubated in serum-free medium with or without added drugs was >95% at 48 h as measured by MTT-based colorimetric assay (Boehringer Mannheim, Indianapolis, Ind.) and by LDH release as previously described (See, e.g., Punturieri et al., J Exp Med 192, 789-99. (2000)). Supernatants were collected and centrifuged for 20 min at 200×g to remove cell debris, then concentrated by a centrifugal filter device (Millipore) in the presence of a protease inhibitor cocktail (Boehringer Mannheim, Indianapolis, Ind.). Equal amounts of protein (20 μg) were loaded under reducing conditions and proteins were separated by 10% SDS-PAGE. The proteins were subsequently transferred to nitrocellulose and probed with mouse monoclonal anti-DEK or rabbit or goat polyclonal anti-DEK antibodies. The bound primary antibody was then detected with horseradish peroxidase-conjugated goat anti-mouse or anti-rabbit secondary antibody using the Super Signal West Pico system (Pierce Chemical Co, Rockford, Ill.)."}, "[2]": {"system": "purified neutrophils (PMN)", "test": "In vitro migration assay with purified neutrophils", "format": "cell-based, human", "settings": "SB225002 3 μM, 1 h", "protocol": "Purified neutrophils (PMN) were treated with IL-8 (50 nM), the CXCR2 small molecule inhibitor SB225002 (3 μM), DEK (79 nM), IL-8 plus SB225002, or DEK plus SB225002 for 5 min at room temperature before and then during the migration assay. After 1 h, the number of fluorescently labeled migrating cells in the lower chamber was determined at 485 nM/535 nm wavelengths by Tecan GENios (Phenix, Austria). […] The results are expressed as the average fold increase in the number of cells migrating toward DEK compared to control wells containing medium only. White blood cells were isolated from venous blood from healthy donors as described above, and were depleted of monocytes by adherence to plastic for 2 h as described in the Cell Preparation section. […] The cells were washed and resuspended at 1×10^6 cells/ml in serum-free RPMI medium, and 1×10^5 labeled cells in 100 μl were added to the upper chamber of a 24-well Transwell chemotaxis insert with pore size of 3 μm or 5 μm (Corning, N.Y.). The lower chambers contained serum-free RPMI medium alone, recombinant DEK made in baculovirus, or a deletion mutant of the β form of human GLI-2 (See, e.g., Smith et al., J Virol 75, 2301-13 (2001)) produced in baculovirus as the control protein. After 30 min to 1 h, the number of fluorescently labeled migrating cells in the lower chamber was determined at […] wavelength using a Tecan GENios plate-reader (Phenix, Austria). The results were expressed as the average fold increase of the number of cells migrating toward lower chambers containing DEK divided by the number of cells migrating toward the control wells (medium alone). Forty ml of venous blood was collected from healthy volunteers into a 50 ml sterile syringe containing a mixture of 7 ml 0.25 M Citrate (0.17 M NA Citrate and 0.083 M Citric Acid) and 6% Dextran in PBS buffer. The blood was incubated for 30 min at room temperature and the upper phase was collected and further separated by Ficoll as described above. The neutrophil fraction was collected and washed with HBSS buffer and then pelleted again. […]"}, "CXCR2": {"molecular_target": "T1, CXCR2 (Homo sapiens, UniProt P25025)", "T1 sequence (P25025 1-360)": "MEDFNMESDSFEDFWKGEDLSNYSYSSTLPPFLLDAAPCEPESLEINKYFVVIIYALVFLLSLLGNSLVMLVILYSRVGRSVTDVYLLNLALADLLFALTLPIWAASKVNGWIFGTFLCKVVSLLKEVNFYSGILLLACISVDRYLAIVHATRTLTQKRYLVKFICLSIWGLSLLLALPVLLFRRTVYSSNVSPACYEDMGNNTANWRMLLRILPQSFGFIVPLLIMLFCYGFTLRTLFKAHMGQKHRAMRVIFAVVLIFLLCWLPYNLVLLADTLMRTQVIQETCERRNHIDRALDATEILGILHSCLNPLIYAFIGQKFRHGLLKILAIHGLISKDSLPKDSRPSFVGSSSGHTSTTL", "settings": "at low concentrations; cited from earlier work"}, "Jurkat cells": {"system": "Jurkat cells", "test": "FAS-L induced apoptosis assay, DEK release into cytoplasm", "format": "cell-based", "settings": "Fas Ligand-mediated apoptosis, 3% FAS-L, 180 min", "protocol": "Jurkat cells were washed with serum-free RPMI medium and incubated with 3% FAS-L without or with the broad-spectrum caspase inhibitor zVAD for 180 min. Cells were fractionated and the cytoplasm was separated by SDS-PAGE followed by immunoblotting with DEK specific antibodies (mouse monoclonal, BD Bioscience). As a loading control the same blot was reprobed with specific antibodies to beta-actin."}, "[3]": {"system": "Jurkat control and DEK-knockdown cells", "test": "DEK knock-down and DNA damage assay (Annexin-V)", "format": "cell-based", "settings": "increasing doses, 24 hours", "protocol": "Jurkat and HeLa S3 cells were transduced with either an empty lentiviral vector, or a vector containing two DEK-specific shRNAs. Control and DEK-knockdown Jurkat cells were exposed to increasing doses of UVC radiation. Twenty-four hours after irradiation, the percentage of apoptotic cells was determined by staining with Annexin-V and analysis by flow cytometry. HeLa S3 control and DEK-knockdown cells were similarly treated with increasing doses of UVC radiation. Cells were fixed, permeabilized, and stained with R-phycoerythrin labeled antibodies against the active form of caspase-3 twenty-four hours after irradiation. The percentage of cells expressing the active form of caspase-3 was determined by flow cytometry. Jurkat control and DEK-knockdown transduced cells were treated with either etoposide or cisplatin at increasing doses and 24 hours later the percentage of apoptotic cells was determined by staining with Annexin-V."}, "[4]": {"settings": "MDM in 10% human serum, TNF-α 5-100 ng/ml, IFN-γ 10-100 ng/ml, MCP-1 10-100 ng/ml, LPS 500-1000 ng/ml alone and with IFN-γ"}},
  "note": "“Also recorded” adds a separate entry of the source. Peptide text beside a SMILES is read from it. * marks the point of attachment. Cbz = O=C(OCc1ccccc1)*; CH2F = FC*",
  "data": [
    {"molecule": "tunicamycin", "values": [
      {"measurement": "DEK secretion", "setting": "[1]; treatment of MDM with tunicamycin (inhibits N-glycosylation)", "result": "not inhibited"}
    ]},
    {"molecule": "O=C(Nc1ccc([N+](=O)[O-])cc1O)Nc1ccccc1Br", "note": "[SB225002]", "values": [
      {"measurement": "neutrophil migration toward DEK", "setting": "[2]; DEK 79 nM", "result": "significantly blocked; also recorded: virtually complete inhibition"},
      {"measurement": "neutrophil migration toward IL-8", "setting": "[2]; IL-8 50 nM", "result": "significantly blocked; also recorded: virtually complete inhibition"},
      {"measurement": "receptor selectivity", "setting": "CXCR2", "result": "selective for CXCR2"}
    ]},
    {"molecule": "lipopolysaccharide [LPS]", "values": [
      {"measurement": "stimulation of DEK secretion", "setting": "[1]; [4]", "result": "None of the inflammatory mediators listed above reproducibly stimulated DEK secretion"}
    ]},
    {"molecule": "IL-8: recombinant IL-8, chemokine, neutrophil chemoattractant", "values": [
      {"measurement": "stimulation of DEK secretion", "setting": "[1]; IL-8 10 ng/ml, 12 h, day 12 MDM grown in 10% human serum", "result": "induces the secretion of DEK; also recorded: effective in stimulating vigorous secretion of DEK"}
    ]},
    {"molecule": "CC(NC(=O)C(NC(=O)OCc1ccccc1)C(C)C)C(=O)NC(CC(=O)O)C(=O)CF", "note": "(stereo not drawn) [ZVAD] (Cbz-Val-Ala-Asp-CH2F; configuration not given here)", "values": [
      {"measurement": "release of DEK into the cytoplasm", "setting": "Jurkat cells", "result": "blocks"}
    ]},
    {"molecule": "C[C@H]1CCC/C=C/[C@@H]2C[C@H](O)C[C@H]2[C@H](O)/C=C/C(=O)O1", "note": "[Brefeldin A]", "values": [
      {"measurement": "amount of DEK found in culture supernatants", "setting": "[1]", "result": "does not alter"}
    ]},
    {"molecule": "TNF-α", "values": [
      {"measurement": "stimulation of DEK secretion", "setting": "[1]; [4]", "result": "None of the inflammatory mediators listed above reproducibly stimulated DEK secretion"}
    ]},
    {"molecule": "N.N.[Cl][Pt][Cl]", "note": "[cisplatinum]", "values": [
      {"measurement": "sensitivity of DEK knock-down cells vs control cells (apoptosis)", "setting": "[3]", "result": "consistently more sensitive"}
    ]},
    {"molecule": "CC[C@@]1([C@@H]2O[C@@H]([C@H]3O[C@@](O)(CO)[C@H](C)C[C@@H]3C)C[C@@H]2C)CC[C@H]([C@]2(C)CC[C@]3(C[C@H](O)[C@@H](C)[C@@H]([C@@H](C)[C@@H](OC)[C@H](C)C(=O)O)O3)O2)O1", "note": "[monensin]", "values": [
      {"measurement": "amount of DEK found in culture supernatants", "setting": "[1]", "result": "does not alter"}
    ]},
    {"molecule": "COc1cc([C@@H]2c3cc4c(cc3[C@@H](O[C@@H]3O[C@@H]5CO[C@@H](C)O[C@H]5[C@H](O)[C@H]3O)[C@H]3COC(=O)[C@H]23)OCO4)cc(OC)c1O", "note": "[etoposide]", "values": [
      {"measurement": "sensitivity of DEK knock-down cells vs control cells (apoptosis)", "setting": "[3]", "result": "consistently more sensitive"}
    ]},
    {"molecule": "MCP-1: monocyte chemoattractant protein-1", "values": [
      {"measurement": "stimulation of DEK secretion", "setting": "[1]; [4]", "result": "None of the inflammatory mediators listed above reproducibly stimulated DEK secretion"}
    ]},
    {"molecule": "Brc1c(Br)c(Br)c2[nH]nnc2c1Br", "note": "[TBB, 4,5,6,7-tetrabromobenzotriazole]", "values": [
      {"measurement": "inhibition of DEK secretion", "setting": "[1]; 12-day MDM treated with TBB", "result": "complete inhibition"},
      {"measurement": "amount of extracellular DEK from TBB-treated cells vs untreated cells", "setting": "[1]; 12 hours after removal of TBB", "result": "significantly lower"},
      {"measurement": "DEK in supernatants collected during the first 3 hours of incubation in serum free media", "setting": "[1]; three-hour treatment of 8-day MDM with TBB (50 μM)", "result": "absent"}
    ]},
    {"molecule": "IFN-γ: inflammatory mediator (protein, UniProt P01579 24-161, looked up) Interferon gamma: QDPYVKEAENLKKYFNAGHSDVADNGTLFLGILKNWKEESDRKIMQSQIVSFYFKLFKNFKDDQSIQKSVETIKEDMNVKFFNSNKKKRDDFEKLTNYSVTDLNVQRKAIHELIQVMAELSPAAKTGKRKRSQMLFRG", "values": [
      {"measurement": "stimulation of DEK secretion", "setting": "[1]; [4]", "result": "None of the inflammatory mediators listed above reproducibly stimulated DEK secretion"}
    ]}
  ]
}
